Among the test systems are OVCAR-8 ovarian; MALME-3M melanoma; HCC-2998 colon; SK-MEL-2 melanoma; ACHN renal; HT29 colon; NCI-H23 lung; SK-MEL-28 melanoma; NCI/ADR-RES ovarian; MDA-MB-435.
What all share (experiment): growth of human tumour cells (NCI), 48 h

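Where inhibition never reached the appropriate level, the endpoint shown equals the highest concentration tested. Otherwise, values were interpolated linearly from a five-concentration, 48-hour dose response in 96-well plates. TGI: total growth inhibition.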

Take `CCCCn1c(-c2ccccc2)cs/c1=N\N=C1C=C(C(C)(C)C)C(=O)C(C(C)(C)C)=C1`: the TGI in the assay with OVCAR-8 ovarian, in the assay with MALME-3M melanoma, in the assay with HCC-2998 colon, in the assay on SK-MEL-2 melanoma, in the assay on ACHN renal and in the assay on HT29 colon was over 100 µM in each case. In addition, the TGI in the assay on NCI-H23 lung is over 100 µM.
For `CC(=O)Nc1ccc(NC(=O)CC(=O)Nc2ccc(NC(C)=O)cc2)cc1`, the TGI in the assay with OVCAR-8 ovarian is over 100 µM; with MALME-3M melanoma, over 100 µM; with HCC-2998 colon, 36.7 µM; in the assay with ACHN renal it was over 100 µM; with HT29 colon it was over 100 µM; in the assay with SK-MEL-28 melanoma it was over 100 µM. Besides, the TGI with NCI-H23 lung, with NCI/ADR-RES ovarian and with MDA-MB-435 was over 100 µM each time.
In the case of `CC(=O)Nc1ccc(-c2nnc(SCC(=O)Nc3cccc(C)c3)o2)cc1`, the TGI was found to be 38.9 µM in the assay on OVCAR-8 ovarian; 27.2 µM in the assay with MALME-3M melanoma; 28.6 µM with SK-MEL-2 melanoma; 22.5 µM in the assay with ACHN renal; 25.4 µM with HT29 colon; 28.6 µM in the assay with SK-MEL-28 melanoma. This compound had a TGI in the assay with NCI-H23 lung of 20.4 µM.
Turning to `O=C(NN1C(=O)C(Cl)C1c1cccc(O)c1)c1ccccc1O` (stereo unspecified), the TGI in the assay with OVCAR-8 ovarian, in the assay with MALME-3M melanoma, in the assay with HCC-2998 colon, with SK-MEL-2 melanoma, in the assay with ACHN renal and in the assay with HT29 colon was over 100 µM throughout. For the same compound, the TGI with SK-MEL-28 melanoma and with NCI-H23 lung was over 100 µM throughout.
As for `CC(=O)O[C@@H]1[C@H](OC2CCCCC2(c2ccccc2)c2ccccc2)O[N+]([O-])=CC12CCCCC2` (stereo partly specified), the TGI turned out to be 59.2 µM in the assay on OVCAR-8 ovarian; 32.6 µM in the assay on HCC-2998 colon; 31.4 µM in the assay with ACHN renal; 36.2 µM in the assay on HT29 colon; 27 µM in the assay with SK-MEL-28 melanoma; 22.2 µM in the assay with NCI-H23 lung. In addition, the figures for the TGI with NCI/ADR-RES ovarian and in the assay on MDA-MB-435 were 30.5 µM and 29.2 µM, respectively.
In the case of `Clc1ccc(Nc2ncco2)cc1Cl`, the TGI in the assay with OVCAR-8 ovarian, in the assay with MALME-3M melanoma, with HCC-2998 colon, in the assay on ACHN renal, in the assay on HT29 colon and in the assay on SK-MEL-28 melanoma was over 10 µM throughout. Besides, the TGI in the assay on NCI-H23 lung, in the assay on NCI/ADR-RES ovarian and in the assay with MDA-MB-435 was over 10 µM each time.
`CC1(CO)C(O)CCC2(C)C1CCC1CC3CC12CCC3(O)CO` (stereo unspecified): the TGI in the assay on OVCAR-8 ovarian, with MALME-3M melanoma, with HCC-2998 colon, with SK-MEL-2 melanoma, in the assay with HT29 colon and in the assay on SK-MEL-28 melanoma was over 100 µM in each case. Also, the TGI with NCI-H23 lung and in the assay on NCI/ADR-RES ovarian was over 100 µM in each case.
As for `NC(Cc1ccc(O)cn1)C(=O)NC(C(=O)O)c1ccccc1` (stereo unspecified), the TGI with OVCAR-8 ovarian, in the assay on MALME-3M melanoma, in the assay with HCC-2998 colon, in the assay with ACHN renal, in the assay with HT29 colon and in the assay with SK-MEL-28 melanoma was over 100 µM each time. The TGI in the assay with NCI-H23 lung, in the assay with NCI/ADR-RES ovarian and in the assay with MDA-MB-435 was over 100 µM throughout.
Consider `O=S(=O)(O)c1ccc2c(N=Nc3cccc4ccccc34)c(O)ccc2c1`, for which the TGI in the assay on OVCAR-8 ovarian, with MALME-3M melanoma, in the assay with SK-MEL-2 melanoma, in the assay with ACHN renal, with HT29 colon and with SK-MEL-28 melanoma was over 100 µM each time. The TGI with NCI-H23 lung, with NCI/ADR-RES ovarian and with MDA-MB-435 was over 100 µM each time.
`CCOC(=O)c1c(N2CCCC2)[nH]c(=O)c(C(c2c(O)c(C(=O)OCC)c(N3CCCC3)[nH]c2=O)C(C)C)c1O`: the TGI in the assay with OVCAR-8 ovarian, in the assay with MALME-3M melanoma, in the assay on HCC-2998 colon, in the assay with ACHN renal, in the assay with HT29 colon and with SK-MEL-28 melanoma was over 100 µM in each case. Further, the TGI with NCI-H23 lung, in the assay on NCI/ADR-RES ovarian and in the assay with MDA-MB-435 was over 100 µM in each case.
`c1ccc2c(c1)nnn2CNc1ccc(N2CCCCC2)cc1`: the TGI with OVCAR-8 ovarian, in the assay on MALME-3M melanoma, with HCC-2998 colon, in the assay with SK-MEL-2 melanoma, in the assay with ACHN renal and in the assay with HT29 colon was over 100 µM throughout. Also, the TGI in the assay with SK-MEL-28 melanoma and in the assay on NCI-H23 lung was over 100 µM each time.
On to `O=[N+]([O-])c1cc(Br)cc2cc(Cl)cnc12`, for which the TGI with OVCAR-8 ovarian, in the assay on MALME-3M melanoma, in the assay on HCC-2998 colon, in the assay on ACHN renal, with HT29 colon and in the assay with SK-MEL-28 melanoma was over 100 µM each time. For the same compound, the TGI in the assay on NCI-H23 lung, with NCI/ADR-RES ovarian and with MDA-MB-435 was over 100 µM throughout.
For the compound `C=C1CC[C@@]2(C)[C@@H]([C@@H]1C)[C@H]1CC[C@@H]3[C@@]4(C)CC[C@H](O)C(C)(C)[C@@H]4CC[C@@]3(C)[C@]1(C)C[C@@H]2O`, the TGI was 12.3 µM in the assay on MALME-3M melanoma; 12.7 µM in the assay on SK-MEL-2 melanoma; 4.44 µM with ACHN renal; 19.6 µM in the assay with HT29 colon; 20.3 µM with SK-MEL-28 melanoma; 5.64 µM in the assay with NCI-H23 lung. The results for the TGI in the assay on NCI/ADR-RES ovarian and in the assay with MDA-MB-435 were 14.2 µM and 26 µM, respectively.
For `CN1C(=O)N(C)C2(CCN(CC(CC3OCCO3)c3ccc(F)cc3)CC2)C1=O` (stereo unspecified), the TGI in the assay with OVCAR-8 ovarian, with MALME-3M melanoma, in the assay on SK-MEL-2 melanoma, in the assay with ACHN renal, in the assay on HT29 colon and in the assay with SK-MEL-28 melanoma was over 100 µM each time. For the same compound, the TGI in the assay with NCI-H23 lung, with NCI/ADR-RES ovarian and in the assay with MDA-MB-435 was over 100 µM each time.
Regarding `CN(C(=O)[C@H](NC(=O)OCc1ccccc1)c1ccccc1)C1CCCCC1N1CCCC1` (stereo partly specified), the TGI with OVCAR-8 ovarian, in the assay on MALME-3M melanoma, in the assay with SK-MEL-2 melanoma, in the assay with ACHN renal, with HT29 colon and in the assay with SK-MEL-28 melanoma was over 100 µM in each case. Besides, the TGI with NCI-H23 lung, in the assay with NCI/ADR-RES ovarian and with MDA-MB-435 was over 100 µM each time.

For the origin of these results see PubChem BioAssay (NCI).
